# Patent publication US11345700B2, “Methods of preparing inhibitors of influenza viruses replication” (priority 2013, dated 2022)
# Assay: Human influenza challenge: safety assessment, adverse events
# Assay type: in vivo, healthy volunteers (humans)
# Source text: A list of adverse events occurring in ≥10% of subjects in any treatment group is presented (Table 29). Influenza-like illness was the most frequently reported adverse event, and was reported by an approximately equal proportion of subjects in the placebo and Compound (1) groups.
structure (smiles),measurement,setting,value
O=C(O)[C@H]1[C@H]2CC[C@H](CC2)[C@@H]1Nc1nc(-c2c[nH]c3ncc(F)cc23)ncc1F [Compound (1)],Adverse event: Spirometry abnormal,"100 mg, N = 16",2 (12.5) n(%)
same,Adverse event: Tension Headache,"100 mg, N = 16",0 n(%)
same,Adverse event: Alanine aminotransferase increased,"400 mg, N = 19",1 (5.3) n(%)
same,Adverse event: Aspartate aminotransferase increased,"400 mg, N = 19",1 (5.3) n(%)
same,Adverse event: Blood phosphorus decreased,"400 mg, N = 19",0 n(%)
same,Adverse event: Dermatitis contact,"400 mg, N = 19",0 n(%)
same,Adverse event: Headache,"400 mg, N = 19",4 (21.1) n(%)
same,Adverse event: Influenza-like illness,"400 mg, N = 19",10 (52.6) n(%)
same,Adverse event: Malaise,"400 mg, N = 19",0 n(%)
same,Adverse event: Nasal congestion,"400 mg, N = 19",0 n(%)
same,Adverse event: Nausea,"400 mg, N = 19",2 (10.5) n(%)
same,Adverse event: Oropharylngeal pain,"400 mg, N = 19",0 n(%)
same,Adverse event: Rhinorrhea,"400 mg, N = 19",2 (10.5) n(%)
same,Adverse event: Spirometry abnormal,"400 mg, N = 19",4 (21.1) n(%)
same,Adverse event: Tension Headache,"400 mg, N = 19",2 (10.5) n(%)
same,Adverse event: Alanine aminotransferase increased,"900/600 mg, N = 19",0 n(%)
same,Adverse event: Aspartate aminotransferase increased,"900/600 mg, N = 19",0 n(%)
same,Adverse event: Blood phosphorus decreased,"900/600 mg, N = 19",6 (31.6) n(%)
same,Adverse event: Dermatitis contact,"900/600 mg, N = 19",0 n(%)
same,Adverse event: Headache,"900/600 mg, N = 19",0 n(%)
same,Adverse event: Influenza-like illness,"900/600 mg, N = 19",9 (47.4) n(%)
same,Adverse event: Malaise,"900/600 mg, N = 19",0 n(%)
same,Adverse event: Nasal congestion,"900/600 mg, N = 19",0 n(%)
same,Adverse event: Nausea,"900/600 mg, N = 19",1 (5.3) n(%)
same,Adverse event: Oropharylngeal pain,"900/600 mg, N = 19",1 (5.3) n(%)
same,Adverse event: Rhinorrhea,"900/600 mg, N = 19",0 n(%)
same,Adverse event: Spirometry abnormal,"900/600 mg, N = 19",0 n(%)
same,Adverse event: Tension Headache,"900/600 mg, N = 19",1 (5.3) n(%)
same,Adverse event: Alanine aminotransferase increased,"1200/600 mg, N = 18",6 (33.3) n(%)
same,Adverse event: Aspartate aminotransferase increased,"1200/600 mg, N = 18",2 (11.1) n(%)
same,Adverse event: Blood phosphorus decreased,"1200/600 mg, N = 18",4 (22.2) n(%)
same,Adverse event: Dermatitis contact,"1200/600 mg, N = 18",0 n(%)
same,Adverse event: Headache,"1200/600 mg, N = 18",2 (11.1) n(%)
same,Adverse event: Influenza-like illness,"1200/600 mg, N = 18",7 (38.9) n(%)
same,Adverse event: Malaise,"1200/600 mg, N = 18",0 n(%)
same,Adverse event: Nasal congestion,"1200/600 mg, N = 18",1 (5.6) n(%)
same,Adverse event: Nausea,"1200/600 mg, N = 18",0 n(%)
same,Adverse event: Oropharylngeal pain,"1200/600 mg, N = 18",0 n(%)
same,Adverse event: Rhinorrhea,"1200/600 mg, N = 18",1 (5.6) n(%)
same,Adverse event: Spirometry abnormal,"1200/600 mg, N = 18",4 (22.2) n(%)
same,Adverse event: Tension Headache,"1200/600 mg, N = 18",0 n(%)
same,adverse event incidence: decreased blood phosphorus level,Compound (1) groups,18.1%
same,adverse event incidence: nasal congestion,Compound (1) groups,1.4%
same,adverse event incidence: rhinorrhea,Compound (1) groups,4.2%
same,Adverse event: Alanine aminotransferase increased,"Pooled Compound (1), N = 72",10 (13.9) n(%)
same,Adverse event: Aspartate aminotransferase increased,"Pooled Compound (1), N = 72",4 (5.6) n(%)
same,Adverse event: Blood phosphorus decreased,"Pooled Compound (1), N = 72",13 (18.1) n(%)
same,Adverse event: Dermatitis contact,"Pooled Compound (1), N = 72",3 (4.2) n(%)
same,Adverse event: Headache,"Pooled Compound (1), N = 72",7 (9.7) n(%)
same,Adverse event: Influenza-like illness,"Pooled Compound (1), N = 72",34 (47.2) n(%)
same,Adverse event: Malaise,"Pooled Compound (1), N = 72",2 (2.8) n(%)
same,Adverse event: Nasal congestion,"Pooled Compound (1), N = 72",1 (1.4) n(%)
same,Adverse event: Nausea,"Pooled Compound (1), N = 72",3 (4.2) n(%)
same,Adverse event: Oropharylngeal pain,"Pooled Compound (1), N = 72",3 (4.2) n(%)
same,Adverse event: Rhinorrhea,"Pooled Compound (1), N = 72",3 (4.2) n(%)
same,Adverse event: Spirometry abnormal,"Pooled Compound (1), N = 72",10 (13.9) n(%)
same,Adverse event: Tension Headache,"Pooled Compound (1), N = 72",3 (4.2) n(%)
same,discontinuations due to Compound (1)-related adverse events; serious adverse events,"healthy volunteers, five daily doses",no discontinuations
same,alanine aminotransferase (ALT),observed in both placebo and Compound (1) recipients,elevations in alanine aminotransferase (ALT) were observed
